Laboratory results reported in US7875638B2, “Synthesis of epothilones, intermediates thereto, analogues and uses thereof” (Sloan-Kettering Institute for Cancer Research, priority 2002, dated 2011).
Values after ≈ are worked out from the molar mass of the structure shown. Values joined by “and” are separate entries in the source; they are usually repeats but may differ in a detail not shown here. Equal entries are not always repeated. “Also recorded” adds a separate entry of the source. Where two headings read alike, the source gives them in different places.

Columns and labels:
[1] = Octanol-water partition (POW) number by HPLC; assay type: physicochemical; conditions: HPLC estimate, pH 7.4 buffer; read-out: Lipophilicity octanol/water partition (POW)
Protocol: Determination of partition of octanol-water (POW) number. An HPLC method is used to estimate octanol-water partition. An Agilent 1100 HPLC system is used with an eclipse XDB C18 column 4.6×250 mm with a mobile phase of 60% acetonitrile/40% 25 mM potassium phosphate buffer at pH 7.4 with a flow rate of 0.8 ml per min. and the eluent is monitored at 250 nm. The standards used are benzyl alcohol, acetophenone, benzophenone, naphthalene, diphenyl ether and dibenzyl with known POW of […] respectively. Sodium dichromate is used to evaluate time zero which is 2.5 min and the retention times for the standards are 3.9, 5.4, 10.6, 14, 18.7 and 19.8 min, respectively. The k value is calculated by the formula of k=(trt−t0)/t0. Linear regression of log k vs. log POW gives a straight line with r^2=0.966. This graph is used to evaluate the POW value of the epothilone analogs.

[2] = for Slower drug degradation in murine plasma as compared to dEpoB (1), factor: exposure to murine plasma
Protocol: (§1) Stability of epothilones in mouse and in human liver S9 fraction. The stability study was carried out with a fully automated HPLC system which consisted of a Prospekt-2 (Spark Holland, Netherlands) sample preparation system and an Agilent 1100 HPLC system. Briefly, the Prospekt 2 picked up a C8 extraction cartridge and washed it with acetonitrile and water. The Agilent autosampler, set at 37° C., picked up 20 μl of the sample, loaded it onto the cartridge, washed it with water, then the Prospekt-2 diverted the mobile phase stream through the extraction cartridge onto the analytical column, Reliance Stable Bond C8 4×80 mm with guard column (MacMod, Chadds Ford, Pa.) and the eluent was monitored at 250 nm. […] Sample preparation involved the addition of equal volumes of plasma to PBS for a total volume of 300-400 μl, filtered, and the addition of 0.5-2 μl of the substrate (20 mM) to achieve about 30-50 mAU at 250 nm in the HPLC analysis. For pooled human liver microsome S9 fraction (Xeno Tech, Lenex, Kans.), 20 μl (400 μg) or S9 fraction was mixed with 280 μl of PBS then proceeded as above. The sampling period was controlled by the autosampler and peak area data were collected to compare the rate of disappearance of the parent compound.
(§2) Stability of epothilones in mouse and in human liver S9 fraction: The stability study was carried out with a fully automated HPLC system which consisted of a Prospekt-2 (Spark Holland, Netherlands) sample preparation system and an Agilent 1100 HPLC system. Briefly, the Prospekt 2 picked up a C8 extraction cartridge and washed it with acetonitrile and water. The Agilent autosampler, set at 37° C., picked up 20 μl of the sample, loaded it onto the cartridge, washed it with water, then the Prospekt-2 diverted the mobile phase stream through the extraction cartridge onto the analytical column, Reliance Stable Bond C8 4×80 mm with guard column (MacMod, Chadds Ford, Pa.) and the eluent was monitored at 250 nm. […] Sample preparation involves the addition of equal volumes of plasma to PBS for a total volume of 400 μl, filtered, and the addition of 0.5-2 μl of the substrate (20 mM) to achieve about 30-50 mAU at 250 nm in the HPLC analysis. For pooled human liver microsome S9 fraction (Xeno Tech, Lenex, Kans.), 20 μl (400 μg) or S9 fraction was mixed with 280 μl of PBS then proceeds as above. The sampling period was controlled by the autosampler and peak area data were collected to compare the rate of disappearance of the parent compound.

[3] = system: human xenografts in nude mice, such as MX-1; design: Relative therapuetic index at MTD: key to the marks not given beside the values; conditions: for Relative therapuetic index at MTD: graded at maximal tolerated dose
[4] = in vitro; conditions: mouse
Protocol: as §1, §2

[5] = system: CCRF-CEM; conditions: for Potency compared with EpoB (51): sensitive and resistant cell lines
Protocol: (§3) Cytotoxicity Assays. In preparation for in vitro cytotoxicity assays, cells were cultured at an initial density 2-5×10^4 cells per milliliter. […] For both methods, the absorbance of each well was measured with a microplate reader (Power Wave XS, Bio-Tek, Winooski, Vt.).
(§4) A typical experiment involves culturing cells (e.g., CCRF-CEM) at an initial density of 2-5×10^4 cells per ml. […] For cells that were grown in suspension (such as CCRF-CEM and its sublines), cytotoxicitiy is measured by using the 2,-3-bis(2-methoxy-4-nitro-5-sulfophenyl)-5 carboxanilide)-2H terazodium hydroxide (XTT)-microculture tetrazonium method in duplicate in 96-well microtiter plates. For both methods, the absorbance of each well is measured with a microplate reader (EL-340, Bio-Tek, Burlington, Vt.). Each run entails six or seven concentrations of the tested drugs. Dose-effect relationship data are analyzed with the median-effect plot.
(§5) Cytotoxicity Assays: In preparation for in vitro cytotoxicity assays, cells were cultured at an initial density 2-5×10^4 cells per milliliter. […] For both methods, the absorbance of each well was measured with a microplate reader (Power Wave XS, Bio-Tek, Winooski, Vt.).

[6] = in vitro; conditions: human
Protocol: as §1, §2

[7] = system: CCRF-CEM/Taxol; assay type: cell-based, human; conditions: for IC50: Homo sapiens, CCRF-CEM
[8] = Solubility in water; conditions: for solubility: water
[9] = preliminary metabolic degradation studies
[10] = system: CCRF-CEM; conditions: human, CCRF-CEM leukemic cells, 72 h
Protocol: as §3, §4, §5

[11] = system: human mammary carcinoma MX-1 xenograft
[12] = system: human mammary carcinoma MX-1 xenograft; test: MX-1 xenograft in nude mice
[13] = system: human colon carcinoma HCT-116 xenograft; test: HCT-116 xenograft in nude mice
[14] = system: human T-cell lymphoblastic leukemia CCRF-CEM/Taxol xenograft; test: CCRF-CEM/Taxol xenograft in nude mice; assay type: in vivo
[15] = system: human colon carcinoma HCT-116 xenograft
[16] = system: A549/taxol cells
Protocol: as §3

[17] = XTT assay following 72 h inhibition, Table 1-3, read-out: IC50, C/Taxol
[18] = read-out: CCRF-CEM (IC50 (μM)), XTT assay following 72 h inhibition, Table 1-1
[19] = XTT assay following 72 h inhibition, Table 1-2, read-out: IC50 (μM), CCRF-CEM/Taxol
[20] = XTT assay following 72 h inhibition, Table 1-4, read-out: IC50, CCRF-CEM/Taxol
[21] = read-out: IC50, CCRF-CEM, XTT assay following 72 h inhibition, Table 1-4
[22] = 72 h, read-out: IC50, CCRF-CEM/Taxol

Q: With `C/C(=C\c1csc(C)n1)[C@@H]1C/C=C(/C(F)(F)F)CCC[C@H](C)[C@H](O)[C@@H](C)C(=O)C(C)(C)[C@@H](O)CC(=O)O1` [Compound 2, 26-trifluoro-12,13-desoxyepothilone B] as the molecule, how does the chromatographic logP [1] read?
A: 4.1

Q: And the “Slower drug degradation in murine plasma as compared to dEpoB (1), factor” value [2]?
A: by a factor of seven

Q: And the “Maximal b.w. % drop without death” value ([3]; mouse, in vivo)?
A: 22%

Q: What about the “Therapeutic dose regimen for Q2D 6 hr-iv infusion” value ([3]; mouse, in vivo, iv) of the same molecule?
A: 15 to 20 mg/kg

Q: And the half-life ([4]; plasma)?
A: 1.1 ± 0.117 h

Q: What about the IC50 ([5]; human) of the same molecule?
A: 0.0093 ± 0.0052 µM

Q: And the IC50 ([5]; read-out: IC50, CCRF-CEM(C), XTT assay following 72 h inhibition, Table 1-3)?
A: 0.0041 µM

Q: And the half-life ([6]; s9)?
A: 1.6 ± 0.4 h

Q: And the IC50 [7, 17]?
A: 0.018 µM

Q: And the solubility [8]?
A: 8 µg/mL (≈ 14.7 µM)

Q: Which IC50 ([5]; read-out: CCRF-CEM (IC50 (μM))) does the source give for `CC1=C/C[C@@H](/C(C)=C/c2csc(C)n2)OC(=O)C[C@H](O)C(C)(C)C(=O)[C@H](C)[C@@H](O)[C@@H](C)C\C=C\1` [Compound 6, epothilone 490, reference compound] here?
A: 0.02 µM

Q: Which “Degradation on exposure to nude mouse plasma” value ([2]; preliminary metabolic degradation studies) does the source give for `C/C(=C\c1csc(C)n1)[C@@H]1C/C=C(/C(F)(F)F)C/C=C/C[C@H](C)[C@H](O)[C@@H](C)C(=O)C(C)(C)[C@@H](O)CC(=O)O1` [Compound 19, 27-F3-[17]ddEpoB] here?
A: remained mostly intact

Q: And the “Degradation on exposure to human plasma” value [9]?
A: remained mostly intact

Q: What about the IC50 [5, 18] of the same molecule?
A: 0.068 µM

Q: What does the source list for `C/C1=C/C[C@@H](/C(C)=C/c2csc(C)n2)OC(=O)C[C@H](O)C(C)(C)C(=O)[C@H](C)[C@@H](O)[C@@H](C)/C=C/C1` [Compound 28, trans-9,10-dehydro-12,13-desoxyepothilone B]?
A: chromatographic logP [1]: 3.3; Relative therapuetic index at MTD [3]: ++++; Antitumor effect in human solid tumor xenograft models ([3]; mouse, in vivo): strongly suppressed tumor growth; Dose accomplishing complete suppression of tumor in a variety of xenografts ([3]; mouse, in vivo): 3 mg/kg; Efficacy compared with dEpoB ([3]; mouse, in vivo): three times more efficacious; Maximal b.w. % drop without death ([3]; mouse, in vivo): 29%; Therapeutic dose regimen for Q2D 6 hr-iv infusion ([3]; mouse, in vivo, iv): 3 to 4 mg/kg; half-life ([4]; mouse plasma): 1.4 ± 0.1 h; IC50 in vitro (FIG. 94) [5]: sub-nanomolar; IC50 ([5]; XTT assay following 72 h inhibition, Table 1-2): 0.0014 µM; IC50 ([5]; XTT assay following 72 h inhibition, Table 1-3): 0.0009 µM; IC50 ([5]; XTT assay following 72 h inhibition, Table 1-4): 0.0009 µM; Potency in direct comparison with dEpoB (1) ([5]; tumor cell lines of Table 1-2): nearly three times more potency; IC50 [10]: 0.9 ± 0.4 nM; Enhancement of drug potency in xenograft experiments with MX-1 tumors [11]: ca. 10 fold; half-life ([6]; pooled human liver S9 fraction): 4.9 ± 0.7 h; IC50 [7, 19]: 0.0017 µM; IC50 [7, 17]: 0.0012 µM; IC50 [7, 20]: 0.0012 µM; Water solubility relative to other epothilones [8]: greatly increased water solubility; solubility [8]: 27 µg/mL (≈ 55.1 µM); Therapeutic effect on MX-1 xenograft ([12]; mouse, in vivo): tumor disappearance

Q: Which “Antitumor effect in human solid tumor xenograft models” value ([3]; mouse, in vivo) does the source give for `C/C(=C\c1csc(C)n1)[C@@H]1C[C@@H]2O[C@]2(C)C/C=C/[C@H](C)[C@H](O)[C@@H](C)C(=O)C(C)(C)[C@@H](O)CC(=O)O1` [Compound 49, (E)-9,10-dehydroepothilone B] here?
A: strongly suppressed tumor growth

Q: And the “IC50 in vitro (FIG. 94)” value [5]?
A: sub-nanomolar

Q: What about the IC50 [5, 21] of the same molecule?
A: 0.00023 µM

Q: And the “Potency compared with EpoB (51)” value [5]?
A: ~3 fold and 2-4 fold

Q: What about the “Mice died of toxicity within three days after the sixth dosage” value ([13]; 0.6 mg/kg, Q2Wx6, 6 hour infusion) of the same molecule?
A: four out of four

Q: What about the “Therapeutic effect on CCRF-CEM/Taxol xenograft” value ([14]; 0.6 mg/kg, Q3Dx5,x2) of the same molecule?
A: abolished tumor growth

Q: What about the IC50 [7, 20] of the same molecule?
A: 0.00042 µM

Q: What about the “Therapeutic effect on MX-1 xenograft” value ([12]; 0.4-0.6 mg/kg, every three days 9-11 times, 6 hour iv infusion) of the same molecule?
A: shrinkage and disappearance of the tumor

Q: And the “Therapeutic effect on MX-1 xenograft” value ([12]; every other day for 8 doses)?
A: tumor growth suppression but no shrinkage of the tumor

Q: And the “Body weight recovery, % of the control” value ([12]; every other day for 9 doses, second to eighth day)?
A: 76% to 82%

Q: For `C/C(=C\c1csc(C)n1)[C@@H]1C[C@H]2O[C@@]2(C)C/C=C/[C@H](C)[C@H](O)[C@@H](C)C(=O)C(C)(C)[C@@H](O)CC(=O)O1` [Compound 50], which IC50 [5, 21] is on record?
A: 0.0134 µM

Q: What about the “Potency compared with EpoB (51)” value [5] of the same molecule?
A: much lower activity

Q: And the “Potency compared with EpoB (51)” value ([5]; listed as unnatural α-oxirane)?
A: virtually devoid of activity

Q: And the IC50 [7, 20]?
A: 0.0802 µM

Q: Which “Therapeutic dose regimen for Q2D 6 hr-iv infusion” value ([3]; Q2D 6 hr-iv infusion) does the source give for `C/C(=C\c1csc(C)n1)[C@@H]1C[C@@H]2O[C@]2(C)CCC[C@H](C)[C@H](O)[C@@H](C)C(=O)C(C)(C)[C@@H](O)CC(=O)O1` [Compound 51, Epothilone B, reference compound] here?
A: 0.6 to 0.8 mg/kg

Q: And the “Relative therapuetic index at MTD” value [3]?
A: +++

Q: What about the “Maximal b.w. % drop without death” value ([3]; nude mice) of the same molecule?
A: 15%

Q: And the half-life ([4]; plasma)?
A: 0.95 h

Q: And the “IC50 in vitro (FIG. 94)” value [5]?
A: sub-nanomolar

Q: What about the IC50 ([5]; read-out: Cytotoxic Efficacy IC50, CCRF-CEM leukemic cells, range of two experiments, seven concentration points) of the same molecule?
A: 0.00053 ± 0.0002 µM

Q: What about the IC50 [5, 21] of the same molecule?
A: 0.00062 µM

Q: What about the half-life ([6]; s9) of the same molecule?
A: 15.8 h

Q: And the IC50 [7, 22]?
A: 0.0011 µM

Q: What does the source list for `C/C(=C\c1csc(C)n1)[C@@H]1C[C@H]2O[C@@]2(C)CCC[C@H](C)[C@H](O)[C@@H](C)C(=O)C(C)(C)[C@@H](O)CC(=O)O1` [Compound 52]?
A: IC50 [5, 21]: 0.083 µM; Potency compared with EpoB (51) [5]: much lower activity; IC50 [7, 22]: 0.151 µM

Q: What does the source list for `C/C1=C/C[C@@H](/C(C)=C/c2csc(CO)n2)OC(=O)C[C@H](O)C(C)(C)C(=O)[C@H](C)[C@@H](O)[C@@H](C)/C=C/C1` [Compound 57, 9,10-dehydro-dEpoF]?
A: Slower drug degradation in murine plasma as compared to dEpoB (1), factor [2]: ca. 7; Antitumor effect in human solid tumor xenograft models ([3]; mouse, in vivo): strongly suppressed tumor growth; IC50 in vitro (FIG. 94) [5]: sub-nanomolar; IC50 ([5]; read-out: IC50 (μM), CCRF-CEM, XTT assay following 72 h inhibition, Table 1-2): 0.00051 µM; IC50 [7, 19]: 0.00073 µM; Water solubility relative to other epothilones [8]: greatly increased water solubility

Q: For `C/C(=C\c1csc(CO)n1)C1C/C=C(/C(F)(F)F)C/C=C/[C@H](C)[C@H](O)[C@@H](C)C(=O)C(C)(C)[C@@H](O)CC(=O)O1` (some centres unmarked) [Compound 59, 26-trifluoro-9,10-dehydro-dEpoF], which “Water solubility relative to other epothilones” value [8] is on record?
A: greatly increased water solubility

Q: With `CC(=O)O[C@H]1C(=O)[C@@]2(C)[C@H]([C@H](OC(=O)c3ccccc3)[C@]3(O)C[C@H](OC(=O)[C@H](O)[C@@H](NC(=O)c4ccccc4)c4ccccc4)C(C)=C1C3(C)C)[C@]1(OC(C)=O)CO[C@@H]1C[C@@H]2O` [Paclitaxel, reference compound] as the molecule, how does the “Tumor relapse during follow-up to D200” value ([13]; Fludelone 20 and 30 mg/kg, Taxol 20 mg/kg) read?
A: tumor relapse occurred on D71, 75, 81 and 81; also recorded: relapses on D71, 75, 81, and 81

Q: What about the “Tumor disappearance (mice)” value ([13]; Q2Dx4, 6 hr-i.v. infusion for 3 cycles, F3-deH-dEpoB 20 and 30 mg/kg, Taxol 20 mg/kg) of the same molecule?
A: 4 out of 4

Q: And the “Final tumor suppression on D34” value ([14]; 20 mg/kg)?
A: 75.6%

Q: And the “Therapeutic effect on CCRF-CEM/Taxol xenograft” value ([14]; 20 mg/kg, 6 hr-i.v. infusion, listed as Taxol)?
A: only partial suppression of tumor growth and failed to achieve tumor shrinkage; also recorded: tumor growth suppression but with little or no tumor shrinkage

Q: And the “Tumor reappeared on day 10 after administration (mice)” value ([11]; 20 mg/kg)?
A: 2/7

Q: And the “Tumor free after Q2Dx6 6 hr-iv. infusion (mice)” value ([11]; 20 mg/kg, 6 h)?
A: 7/7

Q: And the “Mice relapsed on day 10 after suspension of treatment” value ([11]; 20 mg/kg, 240 h)?
A: 2/7

Q: And the “Relapse, time after stopping treatment” value ([15]; 20 mg/kg)?
A: 1.1 months

Q: What about the Cell kill ([15]; 96 h) of the same molecule?
A: 2.56 log

Q: And the Tumor suppression ([15]; 96 h)?
A: 99.7%

Q: And the “Resistance of CCRF-CEM/Taxol subline” value [7]?
A: 44 fold

Q: What about the “Resistance of A549/taxol cells” value [16] of the same molecule?
A: 44 fold

Q: And the “Effect of oral administration on MX-1 xenografts” value ([12]; oral)?
A: did not affect the tumor

Q: For “[17]ddEpoB [Compound 23, reference compound]”, which IC50 [5, 18] is on record?
A: 0.04 µM
